Test results: ChEMBL document CHEMBL1201862, “PubChem BioAssay data set” (2004)
Values joined by “and” are separate entries in the source; they are usually repeats but may differ in a detail not shown here. Equal values may be shown once.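 A five-concentration, 48-hour dose response in 96-well plates underlies each endpoint, interpolated linearly between surrounding concentrations. Here, GI50 denotes the concentration required for 50% inhibition of growth.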 Active and inactive are the calls of the source. Rule as the data show it: active = GI50 up to about 1.1 µM and inactive = higher.

What was measured:
Assay in all cases: DTP human tumour cell line panel, 48 h
[1] = system: U-251
[2] = system: MDA-MB-435
[3] = system: A549
[4] = system: NCI-H460
[5] = system: BT-549
[6] = system: SK-MEL-5
[7] = system: HCC 2998
[8] = system: CAKI-1
[9] = system: SNB-75
[10] = system: SN12C
[11] = system: SK-OV-3
[12] = system: DU-145
[13] = system: CCRF-CEM
[14] = system: SR
[15] = system: LOX IMVI
[16] = system: TK-10
[17] = system: ACHN
[18] = system: NCI-H522
[19] = system: Malme-3M

| SMILES | GI50 [1] | GI50 [2] | GI50 [3] | GI50 [4] | GI50 [5] | GI50 [6] | GI50 [7] | GI50 [8] | GI50 [9] | GI50 [10] | GI50 [11] | GI50 [12] | GI50 [13] | GI50 [14] | GI50 [15] | GI50 [16] | GI50 [17] | GI50 [18] | GI50 [19] |
| --- | --- | --- | --- | --- | --- | --- | --- | --- | --- | --- | --- | --- | --- | --- | --- | --- | --- | --- | --- |
| Cc1ccc(C(=O)CCC2C(=O)CC(C)(C)CC2=O)cc1 | > 100 µM (inactive) | > 100 µM (inactive) | > 100 µM (inactive) | > 100 µM (inactive) | > 100 µM (inactive) | > 100 µM (inactive) | > 100 µM (inactive) | 17.5 µM (inactive) | > 100 µM (inactive) | > 100 µM (inactive) | > 100 µM (inactive) | > 100 µM (inactive) | 24.5 µM (inactive) | 15.7 µM (inactive) | > 100 µM (inactive) | > 100 µM (inactive) | > 100 µM (inactive) | 16.6 µM (inactive) | – |
| Cc1ccc(Nc2nc(=O)c3c([nH]c4ccccc43)s2)cc1 | 12.8 µM (inactive) | 2.48 µM (inactive) | 12.6 µM (inactive) | 10.1 µM (inactive) | 18.2 µM (inactive) | 8.32 µM (inactive) | – | 8.55 µM (inactive) | 16.1 µM (inactive) | 15 µM (inactive) | 28.1 µM (inactive) | 18.6 µM (inactive) | 20.1 µM (inactive) | 4.68 µM (inactive) | 13 µM (inactive) | 11.3 µM (inactive) | 16.2 µM (inactive) | 14.6 µM (inactive) | 10.6 µM (inactive) |
| O=C(/C=C1/Nc2ccc([N+](=O)[O-])cc2N/C1=C/C(=O)c1ccc(Cl)cc1)c1ccccc1 | 30.8 µM (inactive) | > 100 µM (inactive) | > 100 µM (inactive) | 32 µM (inactive) | > 100 µM (inactive) | > 100 µM (inactive) | > 100 µM (inactive) | > 100 µM (inactive) | 19.9 µM (inactive) | > 100 µM (inactive) | 58.7 µM (inactive) | > 100 µM (inactive) | 64.7 µM (inactive) | > 100 µM (inactive) | – | 59 µM (inactive) | > 100 µM (inactive) | 12.6 µM (inactive) | > 100 µM (inactive) |
| O=C1Nc2ccccc2/C1=N/Nc1nc(-c2cccc([N+](=O)[O-])c2)cs1 | 21.4 µM (inactive) | 34.4 µM (inactive) | 20.1 µM (inactive) | 16.9 µM (inactive) | 36.3 µM (inactive) | 20.2 µM (inactive) | 18.1 µM (inactive) | 19.2 µM (inactive) | 20.3 µM (inactive) | 20.8 µM (inactive) | 29.9 µM (inactive) | 25.6 µM (inactive) | 32.8 µM (inactive) | 53 µM (inactive) | 20.7 µM (inactive) | 19 µM (inactive) | 31.4 µM (inactive) | 20.1 µM (inactive) | – |
| COc1cc2c(cc1OC)C(c1ccccc1CCCCl)=NCC2 | 8.07 µM (inactive) | 10.8 µM (inactive) | > 100 µM (inactive) | 48.6 µM (inactive) | 38.3 µM (inactive) | 23.3 µM (inactive) | 46.9 µM (inactive) | > 100 µM (inactive) | 75.3 µM (inactive) | 93.1 µM (inactive) | > 100 µM (inactive) | > 100 µM (inactive) | > 100 µM (inactive) | – | – | > 100 µM (inactive) | > 100 µM (inactive) | 20.8 µM (inactive) | – |
| CCCCCCOC(=O)/C=C/[C@]1(CO)C/C(=C/CC(C(C)C)C(C)C)C(=O)O1 | – | 0.738 µM (active) | 2.99 µM (inactive) | 1.74 µM (inactive) | 10.5 µM (inactive) | 2.13 µM (inactive) | 2.2 µM (inactive) | 10.9 µM (inactive) | 14.2 µM (inactive) | – | 18.2 µM (inactive) | 18.2 µM (inactive) | – | – | 10.6 µM (inactive) | 1.77 µM (inactive) | 6.95 µM (inactive) | 12.3 µM (inactive) | 12.2 µM (inactive) |
| OCCN(CCO)c1ccc2c(-c3ccccc3)cc(N(CCO)CCO)nc2n1 | > 100 µM (inactive) | > 100 µM (inactive) | > 100 µM (inactive) | > 100 µM (inactive) | > 100 µM (inactive) | > 100 µM (inactive) | > 100 µM (inactive) | > 100 µM (inactive) | > 100 µM (inactive) | > 100 µM (inactive) | > 100 µM (inactive) | > 100 µM (inactive) | > 100 µM (inactive) | 20 µM (inactive) | – | > 100 µM (inactive) | > 100 µM (inactive) | > 100 µM (inactive) | > 100 µM (inactive) |
| Cc1ccc(NC(=O)/C(CC2Nc3c(ccc4c3C(=O)c3ccccc3C4=O)NC2O)=N/NC(C)(C)C)cc1 (centres undefined) | 14.1 µM (inactive) | 17.7 µM (inactive) | 16.1 µM (inactive) | 9.57 µM (inactive) | 22 µM (inactive) | 5.6 µM (inactive) | 22.6 µM (inactive) | 8.3 µM (inactive) | 25.8 µM (inactive) | 12.6 µM (inactive) | 12.8 µM (inactive) | 7.36 µM (inactive) | 1.36 µM (inactive) | – | 7.23 µM (inactive) | 7.66 µM (inactive) | 12.4 µM (inactive) | 15.9 µM (inactive) | – |
| Sc1nnc(CNc2ccc(-c3nnc(S)n3-c3ccc(Cl)cc3)cc2)n1-c1ccc(Cl)cc1 | 37.3 µM (inactive) | 28.3 µM (inactive) | 31.6 µM (inactive) | 31.4 µM (inactive) | 34.6 µM (inactive) | 25.1 µM (inactive) | 31.2 µM (inactive) | 19.4 µM (inactive) | 39.7 µM (inactive) | 24.2 µM (inactive) | 34.4 µM (inactive) | 30.5 µM (inactive) | – | – | – | 37.2 µM (inactive) | 47.5 µM (inactive) | 15.2 µM (inactive) | 6.58 µM (inactive) |
| C=CCC1(O)c2cccc(O)c2C(=O)c2cccc(O)c21 (centres undefined) | 11.9 µM (inactive) | 9.38 µM (inactive) | 15.8 µM (inactive) | 13.9 µM (inactive) | 16.8 µM (inactive) | 10.7 µM (inactive) | 11 µM (inactive) | 21.7 µM (inactive) | 13.2 µM (inactive) | – | – | 17.6 µM (inactive) | – | 6.41 µM (inactive) | 16.3 µM (inactive) | 23.5 µM (inactive) | 22.8 µM (inactive) | 9.86 µM (inactive) | – |
| CCC(=O)N(c1ccccc1)C(C)CN1CCC(O)(c2ccccc2)CC1 (centres undefined) | > 100 µM (inactive) | > 100 µM (inactive) | > 100 µM (inactive) | – | > 100 µM (inactive) | > 100 µM (inactive) | – | > 100 µM (inactive) | > 100 µM (inactive) | > 100 µM (inactive) | > 100 µM (inactive) | > 100 µM (inactive) | > 100 µM (inactive) | > 100 µM (inactive) | > 100 µM (inactive) | > 100 µM (inactive) | > 100 µM (inactive) | > 100 µM (inactive) | > 100 µM (inactive) |
| O=C(/C=C/c1ccccc1)c1ccccn1 | 14.3 µM (inactive) and 17.9 µM (inactive) | 26.5 µM (inactive) and 18.9 µM (inactive) | 19.4 µM (inactive) and 32.6 µM (inactive) | 16.7 µM (inactive) and 21.3 µM (inactive) | 24 µM (inactive) and 18.8 µM (inactive) | 14 µM (inactive) and 26.1 µM (inactive) | 13.8 µM (inactive) and 19.3 µM (inactive) | 26.2 µM (inactive) and 16.6 µM (inactive) | 24.5 µM (inactive) and 16 µM (inactive) | 14.3 µM (inactive) and 17.2 µM (inactive) | 27.4 µM (inactive) and 38.5 µM (inactive) | 12.4 µM (inactive) and 18.3 µM (inactive) | 10 µM (inactive) and 17.1 µM (inactive) | – | 10.9 µM (inactive) and 17.6 µM (inactive) | 19 µM (inactive) and 15.2 µM (inactive) | 15.5 µM (inactive) and 16.9 µM (inactive) | 17.8 µM (inactive) and 15.1 µM (inactive) | – |
| COc1ccc(NC=O)c(C(O)CCNC(C)=O)c1 (centres undefined) | > 100 µM (inactive) | > 100 µM (inactive) | > 100 µM (inactive) | > 100 µM (inactive) | > 100 µM (inactive) | > 100 µM (inactive) | – | > 100 µM (inactive) | > 100 µM (inactive) | > 100 µM (inactive) | > 100 µM (inactive) | > 100 µM (inactive) | > 100 µM (inactive) | > 100 µM (inactive) | > 100 µM (inactive) | > 100 µM (inactive) | > 100 µM (inactive) | > 100 µM (inactive) | – |
| O=C1c2ccccc2-c2c1c(-c1ccccc1)c1n2C2(C(=O)c3ccccc3C2=O)C2C(=O)N(c3ccccc3)C(=O)C12 (centres undefined) | 35.9 µM (inactive) | 19.8 µM (inactive) | 85.1 µM (inactive) | 12 µM (inactive) | 17.5 µM (inactive) | 18.2 µM (inactive) | – | 34.4 µM (inactive) | 17.3 µM (inactive) | 19.9 µM (inactive) | 41.9 µM (inactive) | 28.5 µM (inactive) | 26.1 µM (inactive) | – | 17 µM (inactive) | 28.1 µM (inactive) | 31.9 µM (inactive) | 12.9 µM (inactive) | 23.9 µM (inactive) |
| Cc1cn(C(CO)OC(CO)CN(O)C2C3CC4CC(C3)CC2C4)c(=O)[nH]c1=O (centres undefined) | > 100 µM (inactive) | > 100 µM (inactive) | > 100 µM (inactive) | > 100 µM (inactive) | > 100 µM (inactive) | > 100 µM (inactive) | > 100 µM (inactive) | > 100 µM (inactive) | > 100 µM (inactive) | > 100 µM (inactive) | > 100 µM (inactive) | > 100 µM (inactive) | – | > 100 µM (inactive) | – | > 100 µM (inactive) | > 100 µM (inactive) | – | – |
| COc1cc2c(cc1OCCCN1CCN(C)CC1)N=C[C@@H]1CCCN1C2=O | 0.935 µM (active) | 1.9 µM (inactive) | 2.37 µM (inactive) | 2.82 µM (inactive) | 1.77 µM (inactive) | 2.04 µM (inactive) | – | 1.25 µM (inactive) | – | 3.57 µM (inactive) | 2.84 µM (inactive) | 2.25 µM (inactive) | 0.485 µM (active) | 0.0887 µM (active) | 1.49 µM (inactive) | 3.34 µM (inactive) | 2.17 µM (inactive) | 0.179 µM (active) | 2.21 µM (inactive) |
